Earlier results as cited in patent US12478593B2, “Formulations for hair growth” (JENIVISION INC., priority 2016, dated 2025).

What was measured:
eyelashes = settings: humans
[1] = system: eyelash hair follicle growth cycle; settings: mouse eyelash model
[2] = Xalatan

stability in aqueous solution (de-esterification) [2] | Structure (SMILES) | eyelash growth (eyelashes) | effect on anagen growth phase of eyelashes [1]
– | CCNC(=O)CCC/C=C\C[C@@H]1[C@@H](/C=C/[C@@H](O)CCc2ccccc2)[C@H](O)C[C@@H]1O [bimatoprost] | produces eyelash growth | increased entry into anagen and extension of the anagen growth phase
facile hydrolysis | CC(C)OC(=O)CCC/C=C\C[C@@H]1[C@@H](CC[C@@H](O)CCc2ccccc2)[C@H](O)C[C@@H]1O [latanoprost] | – | –
